This test has as its target Prolyl endopeptidase (Flavobacterium meningosepticum). The test is described as follows: Inhibition of Flavobacterium meningosepticum PEP.

Where a SMILES comes first, the peptide text is derived from it. Bridges are numbered along the chain shown (N, C = ends).

`CC[C@H](C)[C@H](NC(=O)[C@H](Cc1ccccc1)NC(=O)[C@@H](NC(=O)[C@H](Cc1cnc[nH]1)NC(=O)CNC(=O)CNC(=O)[C@H](Cc1ccccc1)NC(=O)[C@H](CC(C)C)NC(=O)[C@@H]1CC(=O)NCC(=O)N[C@@H](Cc2ccc(O)cc2)C(=O)N2CCC[C@H]2C(=O)N[C@@H](Cc2c[nH]c3ccccc23)C(=O)N[C@@H](Cc2c[nH]c3ccccc23)C(=O)N[C@@H](CC(=O)O)C(=O)N[C@@H](Cc2ccc(O)cc2)C(=O)N[C@@H](CCCNC(=N)N)C(=O)N1)[C@@H](C)O)C(=O)N[C@@H](CO)C(=O)N1CCC[C@H]1C(=O)O` [propeptin] (GYPWWDYRDLFGGHTFISP-OH; lactam N-9) had an IC50 of 1.1 µM.

(Values after BindingDB's records for doi:10.1021/np010194b (Kyungpook National University, 2002).)
